Measurements taken from article PMC12440824, “Chimeric deubiquitinase engineering reveals structural basis for specific inhibition of the mitophagy regulator USP30” (Nature Structural & Molecular Biology, 2025).

Legend:
[1] = tested on: T1, endogenous USP30 in HEK293 cells; test: Cellular ubiquitin probe competition, endogenous USP30; assay type: cell-based, human; settings: 8 µM compound, 2 h; HA-Ub-PA probe in lysate
T1 construct: Target engagement assay with endogenous USP30; endogenous in cells; host or cells: HEK293 (DSMZ ACC 305)
Method: Cells were seeded at 8 × 10^5 cells per well and grown for 48 h. Compounds (2 µM for overexpressed USP30, 8 µM for endogenous USP30) or DMSO were added for 2 h in freshly supplied medium. The medium was aspirated, and cells were washed once with ice-cold PBS. Cells were collected by scraping in lysis buffer (150 mM NaCl, 250 mM sucrose, 50 mM Tris, pH 8.0, 5 mM TCEP) supplemented with EDTA-free complete protease inhibitor cocktail and benzonase. Suspended cells were homogenized by 12 bursts of a microtip probe sonicator (Branson Sonifier 450) at 10% amplitude with pulses of 1 s on ice. Remaining cell debris was separated by centrifugation (20,817g, 5 min, 4 °C). HA-Ub-PA probe was added to the cleared lysate (approximately 2–4 mg ml^−1) at a final concentration of 10 μM when indicated. After incubation for 10 min at room temperature, reactions were quenched by the addition of 4× reducing LDS sample buffer. Samples were resolved by SDS–PAGE and further analyzed via western blot.
Using a Trans-Blot Turbo system (Bio-Rad, 1.0 A, 25 V, 30 min), proteins were blotted onto a nitrocellulose membrane. […] Images were recorded on a ChemiDoc MP Imaging System (Bio-Rad).

[2] = Solubility in aqueous buffers (observation during crystallization); assay type: physicochemical
USP30^ch3 F453Y = USP30^ch3 F453Y (Homo sapiens, UniProt Q70CQ3, F453Y, form not given); test: Thermal shift assay, USP30 ch3 F453Y; assay type: binding; settings: 20 μM inhibitor
Method: (§1) The thermal stability of USP30 constructs and effects of either inhibitor or Ub-PA binding were determined by thermal shift assays. Inhibitor, Ub-PA and SYPRO orange dye (Sigma, 5,000× stock in DMSO) solutions were prepared in 1× PBS, 4 mM DTT. Inhibitor/Ub-PA was prediluted to 100 µM, and SYPRO orange dye was prediluted to 50× (from the commercial stock). Mixtures of protein, inhibitor/Ub-PA and SYPRO were prepared with inhibitor/Ub-PA at a final concentration of 20 μM, SYPRO at a final concentration of 4× and protein at a final concentration of 2 μM for c1, 4 μM for ch1, ch4 and c2 and 3 μM for ch2 and ch3. Samples were added in triplicate to a white 96-well PCR plate (Bio-Rad). Fluorescence intensity was monitored (excitation, 450–490 nm; emission, 560–580 nm) at a gradient of 20–90 °C (increment of 0.3 °C, hold for 5 s before read) on a real-time PCR system (Bio-Rad).

USP30 c2 = test: Thermal shift assay, USP30 c2; assay type: binding, human; settings: 20 μM inhibitor; for ΔTm, USP30 c2: replicates or average
Method: as §1

USP30^ch3 F157A = USP30^ch3 F157A (Homo sapiens, UniProt Q70CQ3, F157A, form not given); test: Thermal shift assay, USP30 ch3 F157A; assay type: binding; settings: 20 μM inhibitor
Method: as §1

[3] = tested on: T2, Flag-tagged, full-length USP30 F453Y in HEK293 cells; test: Cellular ubiquitin probe competition, overexpressed Flag-tagged USP30 F453Y; assay type: cell-based, human; settings: 2 µM compound, 2 h; HA-Ub-PA probe in lysate
T2 construct: C-terminally Flag-tagged human USP30 (1–517) was used for transient transfection; expressed in transfected cells; host or cells: HEK293, transient transfection of a pOPINE vector
Method: HEK293 cells (8 × 10^5 cells per well) were seeded in six-well plates and cultivated for 24 h. PEI transfecting reagent (Polysciences) was pre-incubated for 10 min with the vectors in 200 μl Opti-MEM medium (2 µg DNA per well). Cells were transfected and incubated for 48 h. Following the treatment with either compounds or DMSO in fresh medium for an additional 2 h, cells were processed as described below. Cells were seeded at 8 × 10^5 cells per well and grown for 48 h. […] The medium was aspirated, and cells were washed once with ice-cold PBS. Cells were collected by scraping in lysis buffer (150 mM NaCl, 250 mM sucrose, 50 mM Tris, pH 8.0, 5 mM TCEP) supplemented with EDTA-free complete protease inhibitor cocktail and benzonase. Suspended cells were homogenized by 12 bursts of a microtip probe sonicator (Branson Sonifier 450) at 10% amplitude with pulses of 1 s on ice. Remaining cell debris was separated by centrifugation (20,817g, 5 min, 4 °C). […] After incubation for 10 min at room temperature, reactions were quenched by the addition of 4× reducing LDS sample buffer. Samples were resolved by SDS–PAGE and further analyzed via western blot. Using a Trans-Blot Turbo system (Bio-Rad, 1.0 A, 25 V, 30 min), proteins were blotted onto a nitrocellulose membrane. […]

USP30^ch3 L328F = test: Thermal shift assay, USP30 ch3 L328F; assay type: binding, human; settings: 20 μM inhibitor; for ΔTm, USP30^ch3 L328F: replicates or average
Method: as §1

USP30^ch3 F157A, sequence (Q70CQ3 64-502 F157A, form open): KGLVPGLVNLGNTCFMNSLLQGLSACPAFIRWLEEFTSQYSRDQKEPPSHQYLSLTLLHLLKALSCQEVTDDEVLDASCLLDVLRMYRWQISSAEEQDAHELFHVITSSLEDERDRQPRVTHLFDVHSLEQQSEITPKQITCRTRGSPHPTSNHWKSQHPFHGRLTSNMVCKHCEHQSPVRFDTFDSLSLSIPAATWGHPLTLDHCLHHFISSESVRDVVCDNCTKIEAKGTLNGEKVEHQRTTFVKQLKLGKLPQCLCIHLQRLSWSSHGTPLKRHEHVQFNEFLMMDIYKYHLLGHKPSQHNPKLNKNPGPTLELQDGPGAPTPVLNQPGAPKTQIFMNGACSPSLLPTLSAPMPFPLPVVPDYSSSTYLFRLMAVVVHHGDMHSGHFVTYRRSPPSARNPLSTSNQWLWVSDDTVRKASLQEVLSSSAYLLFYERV
USP30^ch3 F157A, sequence (P54578 248-318 partner, form open): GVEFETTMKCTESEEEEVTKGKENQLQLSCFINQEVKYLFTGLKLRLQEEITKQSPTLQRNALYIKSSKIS
USP30^ch3 F157A, sequence (Q9P2H5 821-846 partner, form open): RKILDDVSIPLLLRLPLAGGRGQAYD
USP30^ch3 F453Y, sequence (Q70CQ3 64-502 F453Y, form open): as the sequence (Q70CQ3 64-502 F157A, form open) above, with A94F, F390Y counted along it
USP30^ch3 F453Y, sequence (P54578 248-318 partner, form open): as the sequence (P54578 248-318 partner, form open) above

CC(C)(CO)NS(=O)(=O)c1ccc(NC(=O)[C@H](Cc2ccccc2)NC(=O)c2ccc(F)cc2)cc1 [NK036]
activity in probe-labeling experiment with endogenous USP30 [1]: confirmed | solubility in aqueous buffers [2]: improved | Tm in presence of compound, USP30^ch3 F453Y (USP30^ch3 F453Y): 58.2 °C | Tm in presence of compound, USP30 c2 (USP30 c2): 58.2 °C | ΔTm, USP30 c2 (USP30 c2): 7.5 °C | Tm in presence of compound, USP30^ch3 F157A (USP30^ch3 F157A): 58.5 °C | probe labeling of Flag-USP30 F453Y [3]: equally labeled | Tm in presence of compound, USP30^ch3 L328F (USP30^ch3 L328F): 58.2 °C | ΔTm, USP30^ch3 L328F (USP30^ch3 L328F): 1.2 °C

CC(C)(C)NS(=O)(=O)c1ccc(NC(=O)[C@H](Cc2ccccc2)NC(=O)c2ccc(F)cc2)cc1 [compound 39]
activity in probe-labeling experiment with endogenous USP30 [1]: confirmed | solubility in aqueous buffers [2]: poor solubility | Tm in presence of compound, USP30^ch3 F453Y (USP30^ch3 F453Y): 58.5 °C | Tm in presence of compound, USP30 c2 (USP30 c2): 58.5 °C | ΔTm, USP30 c2 (USP30 c2): 7.8 °C | Tm in presence of compound, USP30^ch3 F157A (USP30^ch3 F157A): 58.8 °C | probe labeling of Flag-USP30 F453Y [3]: equally labeled | Tm in presence of compound, USP30^ch3 L328F (USP30^ch3 L328F): 58.5 °C | ΔTm, USP30^ch3 L328F (USP30^ch3 L328F): 1.5 °C
